Reference: US20230017312A1, “CENTRALLY ACTIVE P38ALPHA INHIBITING COMPOUNDS” (Synovo GmbH, priority 2019, published 2023)

Assays:
TNFa [1] = assay: LPS-stimulated TNFa production, spleen; assay type: cell-based; conditions: compound 10 nM
TNFa [2] = assay: LPS-stimulated TNFa production, hBuffy Coat; assay type: cell-based, human; conditions: compound 1 nM
Experimental: (§1) The substances can be tested by mixing them with immune cells subject to stimulus and measuring the resulting inflammatory response. A standard assay involves the application of lipopolysaccharide (e.g. 10 μg/mL) to human blood derived immune cells and then detecting the concentration of cytokines (IL-6, TNFa) after 24 h. When tested in this way, the described compounds have the following effects as recorded in Table 2.

IL-6 [3] = assay: LPS-stimulated IL-6 production, hBuffy Coat; assay type: cell-based, human; conditions: compound 1 nM
Experimental: as §1

TNFa [4] = assay: LPS-stimulated TNFa production, BL6 Blood; assay type: cell-based; conditions: compound 100 nM
IL-6 [5] = assay: LPS-stimulated IL-6 production, BL6 Blood; assay type: cell-based; conditions: compound 100 nM
IL-6 [6] = assay: LPS-stimulated IL-6 production, spleen; assay type: cell-based; conditions: compound 10 nM

melting point [°C]	SMILES	Amount of cytokine produced as % control: TNFa Spleen (100 ng LPS) 10 nM (TNFa [1]) [% control]	Amount of cytokine produced as % control: TNFa hBuffy Coat (100 ng LPS) 1 nM (TNFa [2]) [% control]	Amount of cytokine produced as % control: IL-6 hBuffy Coat (100 ng LPS) 1 nM (IL-6 [3]) [% control]	Amount of cytokine produced as % control: TNFa BL6 Blood (500 ng LPS) 100 nM (TNFa [4]) [% control]	Amount of cytokine produced as % control: IL-6 BL6 Blood (500 ng LPS) 100 nM (IL-6 [5]) [% control]	Amount of cytokine produced as % control: IL_6 Spleen (100 ng LPS) 10 nM (IL-6 [6]) [% control]
162.7	COC(=O)c1ccc2c(c1)C(=O)c1ccc(Nc3ccc(F)cc3F)cc1OC2 [Compound 15a, 3-((2,4-Difluorophenyl)amino)-11-oxo-6,11-dihydrobenzo[b,e]oxepin-9-carboxylmethylester]	–	–	–	–	–	–
–	C[S+]([O-])c1ccc(-c2nc(-c3ccncc3)c(-c3ccc(F)cc3)[nH]2)cc1 (stereo not shown) [SB203580]	11	85	61	4	22	10
